According to patent publication US4681940A, “5-[3-[[2-quinolyl]methoxy]phenyl]-1,3-oxazoles” (American Home Products Corporation, priority 1985, dated 1987):
Counter-ions that a name gives are not always drawn.

Columns and labels:
[1] = tested on: LTD4 induced bronchoconstriction; test: In vivo inhibition of bronchospasm induced in guinea pigs by exogenously administered leukotrienes C4 and/or D4; set-up: species or system guinea pig (male Hartley); conditions: 10 minutes before induction of bronchospasm
Experimental: The assay of this Example measures the in vivo ability of the compounds of the invention to inhibit the bronchospasm induced in guinea pigs by the exogenously administered leukotrienes C4 and/or D4.
This assay is carried out as follows:
Male Hartley strain guinea pigs (350-600 g) are anesthetized with pentobarbital sodium (50 mg/kg, i.p.). The jugular vein is cannulated for injection of drugs and the carotid artery for monitoring blood pressure. The trachea is cannulated for artificial ventilation by a miniature Starling pump and for indirect measurement of respiratory volume changes as described infra. The animals are then pretreated with succinylcholine (2 mg/kg i.v.) and indomethacin (10 mg/kg i.v. in trizma 8.3 buffer, 9 minutes prior to leukotriene challenge). Submaximal bronchoconstrictor responses are established in control animals by varying the dose-levels of leukotriene. Intravenous dose-levels for LTC4 range from 0.4 to 0.6 μg/kg and for LTD4 the range is from 0.3 to 0.5 μg/kg. The aerosol bronchoprovocation dose for LTC4 is generated from 1.6 μM solution and for LTD4 from a 2.0 μM solution.
Test drugs (dissolved in a solvent such as propylene glycol, polyethylene glycol 400 or saline) are administered either intraduodenally, by aerosol or intragastrically at 2 or 10 minutes before induction of bronchospasm by administration of either LTC4 or LTD4 at the predetermined dose-levels. Aerosols of soluble drugs or leukotrienes are produced in-line for 10 seconds only by actuation of an ultrasonic nebulizer (Monaghan). Aerosolized drug dosage is expressed in terms of solution concentration and by a fixed aerosol exposure time (approximately 10 seconds). Control animals receive solvent (2 ml/kg i.d. or appropriate aerosol) in place of drug.
(§1) Respiratory volume changes are determined by a calibrated piston whose travel is recorded, via a linear transducer, on a Beckman Dynograph recorder. Maximal bronchoconstrictor volume is determined by clamping off the trachea at the end of the experiment. Overflow volumes at 1, 3 and 5 minutes are obtained from the recorded charts.
Area under the volume overflow curve (AUC) is estimated, using the overflow values at 1, 3 and 5 minutes, and expressed as a percentage of the maximal overflow AUC (equation 1): [formula] Drug effects are reported as percent inhibition of % max AUC values obtained from appropriate control animals (equation 2): [formula]
Student's t-test for unpaired data is used to determine statistical significance (p<0.05). IC50 values can also be determined by inverse prediction from linear regression lines through points between 10 and 90% inhibition.

[2] = tested on: synthesis of 5-HETE by rat glycogen elicited polymorphonuclear leukocytes; test: Inhibition of 5-HETE synthesis by rat glycogen-elicited polymorphonuclear leukocytes; assay type: cell-based, rat (female Wistar); conditions: rat PMN
Experimental: The assay of this Example measures the ability of the compounds of the invention to inhibit the synthesis of 5 -HETE by rat glycogen elicited polymorphonuclear leukocytes.
(§2) The assay is carried out as follows:
Peritoneal PMN are obtained from female Wistar rats (150-250 g) that received an i.p. injection of 6% glycogen (10 ml). After 24 hours, rats are killed by CO2 asphyxiation and peritoneal cells are harvested by peritoneal lavage using Ca^++ and Mg^++ free Hanks' balanced salt solution (HBSS). The peritoneal exudate is centrifuged at 400 g for 10 minutes. After centrifugation, the lavaged fluid is removed and the cell pellet is resuspended in HBSS containing Ca^++ and Mg^++ and 10 mM L-cysteine at a concentration of 2×10^7 cells/ml. To 1 ml portions of cell suspension, test drugs or vehicle are added and incubated at 37° C. for 10 minutes. Following this preincubation, the calcium ionophore (10 μM), A23187, is added together with 0.5 μCi [^14 C] arachidonic acid and further incubated for 10 minutes. The reaction is stopped by the addition of ice cold water (3 ml) and acidifying to pH 3.5. Lipoxygenase products are then extracted twice into diethyl ether. The pooled ether extracts are evaporated to dryness under nitrogen and the residue is redissolved in a small volume of methanol and spotted on aluminum backed pre-coated thin layer chromatographic plates. The samples are then co-chromatographed with authentic reference 5-HETE in the solvent system--hexane:ether:acetic acid (50:50:3). After chromatography, the areas associated with 5-HETE standard are identified by autoradiography, cut out and quantitated by liquid scintillation.
The compounds of this invention are tested in this assay at a level of 50 μm, unless otherwise noted. The results are summarized in Table 1, where those compounds having an inhibition of >50% are designated by a "+". Some results are expressed as an IC50 value.

[3] = tested on: ovalbumin induced bronchospasm; test: In vivo inhibition of ovalbumin-induced bronchospasm mediated by endogenous mediators in sensitized guinea pigs; set-up: species or system guinea pig (male Hartley); conditions: 50 mg/kg intraduodenal, 10 minutes before ovalbumin challenge
Experimental: The assay of this Example measures the in vivo ability of the compounds of the invention to inhibit the bronchospasm induced in guinea pigs by endogenous mediators of the bronchoconstriction.
as §2
Male Hartley strain guinea pigs weighing 250-350 g are sensitized to chicken ovalbumin (OA) (10 mg i.p.) on days 1 and 3 and used starting on day 26. The animals are anesthetized with pentobarbital sodium (50 mg/kg, i.p.), bilateral vagotomy is performed, and the jugular vein is cannulated for injection of drugs and the carotid artery for monitoring blood pressure. The trachea is cannulated for artificial ventilation by miniature Starling pump and for indirect measurement of respiratory volume changes as described, infra. Succinylcholine (2 mg/kg, i.v.) is administered to arrest spontaneous respiration. […]
as §1, with “volumes at minutes 1, 3” for “volumes at 1, 3”, “and 5 are obtained” for “and 5 minutes are obtained”
Area under the volume overflow curve (AUC) is estimated, using the overflow values at 1, 3 and 5 minutes, and expressed as a percentage of the maximal overflow AUC (equation 1): [formula] […]

## CN1CC(c2cccc(OCc3ccc4ccccc4n3)c2)OC1=O (stereo not drawn) [1 (as HCL salt), 5-[3-[(2-Quinolinyl)methoxy]phenyl]-3-methyl-2-oxazolidone]
[1]; 50 mg/kg, intraduodenally
  % Inhibition: 65%
[1]; 50 mg/kg, intragastrically
  % Inhibition: 46%

## CCOC(=O)CC1=NCC(c2cccc(OCc3ccc4ccccc4n3)c2)O1 (stereo not drawn) [Example 8, 2-Ethoxycarbonylmethyl-4,5-dihydro-5-[3-[(2-quinolinyl)methoxy]phenyl]-1,3-oxazole]
[1]; 25 mg/kg, intraduodenally
  % Inhibition: 72%

## c1cc(OCc2ccc3ccccc3n2)cc(C2CN=C(c3cccs3)O2)c1 (stereo not drawn) [Example 7, 4,5-Dihydro-5-[3-[(2-quinolinyl)methoxy]phenyl]-2-(2-thienyl)-1,3-oxazole]
[1]; 50 mg/kg, intraduodenally
  % Inhibition: 41%

## c1ccc(C2=NCC(c3cccc(OCc4ccc5ccccc5n4)c3)O2)nc1 (stereo not drawn) [Example 6, 4,5-Dihydro-5-[3-[(2-quinolinyl)methoxy]phenyl]-2-(2-pyridyl)-1,3-oxazole]
[1]; 25 mg/kg, intraduodenally
  % Inhibition: 96%

## CN1C[C@@H](c2cccc(OCc3ccc4ccccc4n3)c2)OC1=O [Example 1, 5-[3-[(2-Quinolinyl)methoxy]phenyl]-3-methyl-2-oxazolidone]
[2]; Leukocyte
  IC50: 19.6 µM
[2]
  >50% Inhibitory at 50 μm: + (inhibition of >50%)

## CN1C[C@H](c2cccc(OCc3ccc4ccccc4n3)c2)OC1=O [Example 1 (as free base, S-enantiomer), 5-[3-[(2-Quinolinyl)methoxy]phenyl]-3-methyl-2-oxazolidone]
[1]; 50 mg/kg, intraduodenally
  % Inhibition: 99%

## CN1CC(c2cccc(OCc3nc4ccccc4n3C)c2)OC1=O (stereo not drawn) [Example 4, 5-[3-[(1-Methyl-2-benzimidazoyl)]methoxy]phenyl-3-methyl-2-oxazolidone]
[1]; 50 mg/kg, intraduodenally
  % Inhibition: 65%

## CN1CC(c2cccc(OCc3ccc4ccccc4n3)c2)OC1=O (stereo not drawn) [1 (as free base), 5-[3-[(2-Quinolinyl)methoxy]phenyl]-3-methyl-2-oxazolidone]
[3]
  % Inhibition of Max AUC: 69%

## CCC1=NCC(c2cccc(OCc3ccc4ccccc4n3)c2)O1 (stereo not drawn) [Example 5, 2-Ethyl-4,5-dihydro-5-[3-[(2-quinolinyl)methoxy]phenyl]-1,3-oxazole]
[1]; 25 mg/kg, intraduodenally
  % Inhibition: 77%

## CN1CC(c2cccc(OCc3ccc4ccccc4n3)c2)OC1=S (stereo not drawn) [Example 2, 5-[3-[(2-Quinolinyl)methoxy]phenyl]-3-methyl-2-thiaoxazolidone]
[2]
  >50% Inhibitory at 50 μm: + (inhibition of >50%)

## CN1C[C@@H](c2cccc(OCc3ccc4ccccc4n3)c2)OC1=O [Example 1 (as free base, R-enantiomer), 5-[3-[(2-Quinolinyl)methoxy]phenyl]-3-methyl-2-oxazolidone]
[1]; 50 mg/kg, intraduodenally
  % Inhibition: 91%
[1]; 50 mg/kg, intragastrically
  % Inhibition: 65%
[1]; Cavia porcellus, 10 min, printed on the intraduodenal line, read-out: IC50 (the source's name)
  ED50: 8.6 mg/kg
